Experimental data taken from patent publication US20220117845A1, “COMPOSITION AND CONTAINER, KIT, METHOD OF USE” (NTC S.R.L., priority 2019, published 2022).

Columns and labels:
[1] = Dissolution study as a function of the pH value of water; type: physicochemical; conditions: 150 g in 900 ml of water
Description: The solubility of the mannitol powder was then studied in the following three types of non-carbonated commercial waters: • Sangemini: pH at source 6.2; • Antica Fonte Boario: pH at source 7.0; • Panna Toscana: pH at source 8.0.

[2] = Bulk density of the powder; type: physicochemical; conditions: after passing through drum centrifugal sieve shaker, mesh 3 mm clear span; measured in the laboratory
Description: As regards the bulk density outlined above, in particular the poured bulk density, such parameter is measured according to the European Pharmacopoeia reference standard (Ph. Eur.), current edition 2.2.42, in force at the priority date of this patent application. In the context of the present invention, the expression ‘bulk’ implies that the powder density value is calculated in a manner formally analogous to an absolute density (such as for a solid body or for a liquid). However, since a powder has empty inter-particle spaces, the total volume occupied by the powder (i.e. its outer bulk), thus including the inter-particle spaces between the various particles, should be taken into account when evaluating bulk density. More precisely, according to the aforementioned regulation, a 100 ml class A graduated flask is filled and brought to volume with the powder particles, after which the bulk density is calculated as the ratio between the weight of the powder contained in the flask and the volume (100 ml) occupied by that weight of the powder particles.

time for complete dissolution ([1]; weakly acidic or neutral pH): more than 6 minutes
time for complete dissolution relative to weakly acidic or neutral pH ([1]; weakly basic pH): substantially half as much
transient density [2]: about 0.73 g/ml
SMILES: OC[C@@H](O)[C@@H](O)[C@H](O)[C@H](O)CO [mannitol]
